Experiments:
[1] = 100 kPa, Liquid, Vibrating tube method
[2] = wn = mass fraction of the nth substance listed; conditions: Liquid, Vibrating tube method

CN(CCO)CCO [N-methyldiethanolamine]
[1]
Conditions	mass density [kg/m3]
293.15 K	1039.9
303.15 K	1032.4
313.15 K	1024.9
323.15 K	1017.2
333.15 K	1009.5
343.15 K	1001.7
353.15 K	993.9
363.15 K	986
373.15 K	978.28
383.15 K	970.22
393.15 K	962.03
403.15 K	953.71
413.15 K	945.29
423.15 K	936.81

CN(CCO)CCO [N-methyldiethanolamine] + O
mass density [kg/m3], [2]
Conditions	w1 = 0.5	w1 = 0.6	w1 = 0.7	w1 = 0.8
293.15 K, 101 kPa	1045.8	1052.6	1056.1	1055.5
303.15 K, 101 kPa	1039.6	1045.8	1048.8	1048.1
313.15 K, 101 kPa	1033	1038.6	1041.3	1040.5
323.15 K, 101 kPa	1026.1	1031.2	1033.6	1032.6
333.15 K, 101 kPa	1018.9	1023.6	1025.6	1024.6
343.15 K, 101 kPa	1011.4	1015.6	1017.4	1016.4
353.15 K, 101 kPa	1003.5	1007.4	1009	1007.9
363.15 K, 101 kPa	995.3	998.9	1000.4	999.3
373.15 K, 800 kPa	987	990.32	991.79	990.82
383.15 K, 800 kPa	978.16	981.18	982.65	981.74
393.15 K, 800 kPa	968.93	971.76	973.23	972.51
403.15 K, 800 kPa	959.28	962.08	963.68	963.09
413.15 K, 800 kPa	949.4	952.13	953.72	953.38
423.15 K, 800 kPa	939.06	941.91	943.63	943.53

OCCNCCO [diethanolamine] + O
mass density [kg/m3], [2]
Conditions	w1 = 0.5	w1 = 0.6	w1 = 0.7	w1 = 0.8
293.15 K, 101 kPa	1060.7	1073.1	1082.5	1089.6
303.15 K, 101 kPa	1055.5	1067.4	1076.5	1083.6
313.15 K, 101 kPa	1050	1061.4	1070.3	1077.4
323.15 K, 101 kPa	1044.1	1055.2	1064	1070.9
333.15 K, 101 kPa	1037.9	1048.6	1057.3	1064.2
343.15 K, 101 kPa	1031.4	1041.9	1050.5	1057.4
353.15 K, 101 kPa	1024.51	1034.7	1043.5	1050.5
363.15 K, 101 kPa	1017.38	1027.3	1036.1	1043.1
373.15 K, 800 kPa	1010.04	1020	1028.87	1035.98
383.15 K, 800 kPa	1002.15	1012.14	1020.89	1028.08
393.15 K, 800 kPa	994.94	1003.87	1012.73	1020.14
403.15 K, 800 kPa	985.63	995.45	1004.18	1012.1
413.15 K, 800 kPa	976.68	986.55	995.42	1003.23
423.15 K, 800 kPa	967.44	977.38	986.45	995.43

Source: the NIST ThermoML archive (doi:10.1021/je300530z)
